The values that follow come from patent publication US7872036B2, “3-triazolylphenyl sulfide derivative and insecticide, miticide and nematicide containing it as an active ingredient” (Kumiai Chemical Industry Co., Ltd., priority 2004, dated 2011).

In one experiment the test system is brown planthoppers. Description: Insecticidal test on brown planthoppers. The experiment is classed as in vivo, Nilaparvata lugens. To be noted: active ingredient 500 ppm, germinating rice immersed, 4th-instar larvae, 25° C., 6 days. Here is the method: Wettable powders were prepared in accordance with Formulation Example 2 and diluted with water to an active ingredient concentration of 500 ppm. Germinating rice was immersed in the resulting solutions and put in a plastic cup with a capacity of 60 ml. Ten 4th-instar larvae of brown planthoppers were released to the cup, and the cup was covered and placed in a thermostatic chamber at 25° C. for 6 days, and the survivors were counted for calculation of the insecticidal degree by using Equation 1. The test was carried out by one series system.

For experiment [1], the system named is southern root-knot nematodes. The experiment is described as follows: Nemastatic test on southern root-knot nematodes. The class given is in vivo, Meloidogyne sp. To be noted: diluted solution 20 ppm mixed 1:1 with suspension of second stage larvae, 25° C., 5 days. As for the experimental part: Compounds of the present invention (5 parts) and Tween 20 (tradename for polyoxyethylene sorbitan monolaurate) (1 part) as a spreader were dissolved n N,N-dimethylformamide (94 parts) to prepare 5% emulsifiable concentrates of the compounds of the present invention. Distilled water was added to the emulsifiable concentrates to prepare diluted solutions having a concentration of the compounds of the present invention of 20 ppm. 0.5 ml of the diluted solutions and 0.5 ml of water suspensions containing 100 second stage larvae of southern root-knot nematodes were mixed, and the mixture were placed in a thermostatic chamber at 25° C. for 5 days, and the survivors were counted for calculation of the nemastatic degree by using Equation 3. The test was carried out by two series system.

Consider `CC[S+]([O-])c1nc(N)n(-c2cc(SCC(F)(F)F)c(C)cc2F)n1` (stereo not shown) [Compound 23], for which the “Insecticidal degree (%)” value with brown planthoppers amounted to 90%. Further, the “Nemastatic degree (%)” value in experiment [1] came out at 100%. On to `Cc1cc(F)c(-n2nc(C(C)(C)C#N)nc2N)cc1SCC(F)(F)F` [Compound 103], for which the “Nemastatic degree (%)” value in experiment [1] is recorded as 94%. Regarding `CNc1nc(SCC(F)(F)F)nn1-c1cc(SCC(F)(F)F)c(C)cc1F` [Compound 160], in the experiment with brown planthoppers, the “Insecticidal degree (%)” value is 100%. For the same compound, the “Nemastatic degree (%)” value in experiment [1] was found to be 100%. Regarding `C#CCNc1nc(SCC(F)(F)F)nn1-c1cc(SCC(F)(F)F)c(C)cc1F` [Compound 184], in the experiment on brown planthoppers, the “Insecticidal degree (%)” value is recorded as 100%. With `COC(=O)Nc1nc(C(F)(F)F)nn1-c1cc(SCC(F)(F)F)c(C)cc1F` [Compound 79], in the experiment with brown planthoppers, the “Insecticidal degree (%)” value is given as 100%. Also, the “Nemastatic degree (%)” value in experiment [1] stood at 94%. Take `Nc1nc(C(F)(F)F)nn1-c1ccc(Cl)c(SCC(F)(F)F)c1` [Compound 126]: the “Nemastatic degree (%)” value in experiment [1] is recorded as 94%. As for `CCC(=O)Nc1nc(C(F)(F)F)nn1-c1cc(SCC(F)(F)F)c(C)cc1F` [Compound 186], in the experiment on brown planthoppers, the “Insecticidal degree (%)” value was found to be 100%. Take `Cc1cc(F)c(-n2nc([S+](C)[O-])nc2N)cc1SCC(F)(F)F` (stereo not shown) [Compound 17]: the “Insecticidal degree (%)” value in the experiment with brown planthoppers is given as 100%. In addition, the “Nemastatic degree (%)” value in experiment [1] amounted to 99%.

As to `Cc1cc(F)c(-n2nc(C(F)(F)F)nc2NC(=O)CCl)cc1SCC(F)(F)F` [Compound 189], in the experiment with brown planthoppers, the “Insecticidal degree (%)” value is 100%.

With `CNc1nc(C(F)(F)F)nn1-c1cc(SCC(F)(F)F)c(C)cc1Cl` [Compound 97], the “Nemastatic degree (%)” value in experiment [1] came to 97%. Regarding `CCNc1nc(C(F)(F)F)nn1-c1cc(SCC(F)(F)F)c(C)cc1F` [Compound 59], in the experiment with brown planthoppers, the “Insecticidal degree (%)” value is 100%. Further, in experiment [1], the “Nemastatic degree (%)” value is on record as 100%.

For `Cc1nc(N)n(-c2cc(SCC(F)(F)F)c(C)cc2F)n1` [Compound 105], the “Insecticidal degree (%)” value in the experiment on brown planthoppers was 90%. As for `Cc1cc(F)c(-n2nc(C(F)(F)F)nc2C#N)cc1SCC(F)(F)F` [Compound 209], in experiment [1], the “Nemastatic degree (%)” value is reported as 100%. Consider `CNc1nc(C(F)(F)F)nn1-c1cc(SCC(F)(F)F)c(C)cc1C` [Compound 146], for which the “Nemastatic degree (%)” value in experiment [1] turned out to be 98%. As for `CNc1nc(SC(F)(F)C(F)(F)F)nn1-c1cc(SCC(F)(F)F)c(C)cc1F` [Compound 101], the “Insecticidal degree (%)” value in the experiment on brown planthoppers came out at 100%. In addition, the “Nemastatic degree (%)” value in experiment [1] worked out at 98%. Turning to `COC(=O)c1nc(C(F)(F)F)nn1-c1cc(SCC(F)(F)F)c(C)cc1F` [Compound 203], the “Nemastatic degree (%)” value in experiment [1] worked out at 92%.

Take `Cc1cc(F)c(-n2nc(C(C(F)(F)F)C(F)(F)F)nc2N)cc1SCC(F)(F)F` [Compound 182]: the “Nemastatic degree (%)” value in experiment [1] was 91%. Still for that read-out and setting: for `Cc1cc(F)c(-n2nc(C(F)(F)F)nc2C(N)=O)cc1SCC(F)(F)F` [Compound 207] the value was 100%. Consider `C#CCSc1nc(N)n(-c2cc(SCC(F)(F)F)c(C)cc2F)n1` [Compound 148], for which, in the experiment with brown planthoppers, the “Insecticidal degree (%)” value is reported as 100%. The “Nemastatic degree (%)” value in experiment [1] amounted to 99%. For `Cc1cc(F)c(-n2nc(S(C)(=O)=O)nc2N)cc1[S+]([O-])CC(F)(F)F` (stereo not shown) [Compound 20], in the experiment on brown planthoppers, the “Insecticidal degree (%)” value came to 100%. In experiment [1], the “Nemastatic degree (%)” value is listed as 92%. With `Cc1cc(F)c(-n2nc(C(F)(F)F)nc2C(N)=O)cc1[S+]([O-])CC(F)(F)F` (racemic) [Compound 208], the “Nemastatic degree (%)” value in experiment [1] is 100%. As for `Cc1cc(F)c(-n2nc(C(F)(F)F)nc2NCC#N)cc1[S+]([O-])CC(F)(F)F` (stereo not shown) [Compound 165], the “Insecticidal degree (%)” value in the experiment on brown planthoppers amounted to 100%. Consider `Cc1cc(F)c(-n2nc(SC(F)(F)F)nc2N)cc1SCC(F)(F)F` [Compound 31], for which the “Insecticidal degree (%)” value in the experiment with brown planthoppers turned out to be 100%. For the same compound, in experiment [1], the “Nemastatic degree (%)” value worked out at 100%. As for `C#CCNc1nc(SC(F)(F)C(F)(F)F)nn1-c1cc(SCC(F)(F)F)c(C)cc1F` [Compound 193], the “Insecticidal degree (%)” value with brown planthoppers was 100%. Further, in experiment [1], the “Nemastatic degree (%)” value is 100%. For the compound `CCC[S+]([O-])c1nc(N)n(-c2cc([S+]([O-])CC(F)(F)F)c(C)cc2F)n1` (stereo not shown) [Compound 137], the “Insecticidal degree (%)” value in the experiment on brown planthoppers came out at 100%.

As for `Cc1cc(F)c(-n2nc(C(F)(F)F)nc2NCC#N)cc1SCC(F)(F)F` [Compound 164], the “Insecticidal degree (%)” value with brown planthoppers is 100%. The “Nemastatic degree (%)” value in experiment [1] is reported as 100%. With `CC(=O)N(C)c1nc(SCC(F)(F)F)nn1-c1cc(SCC(F)(F)F)c(C)cc1F` [Compound 158], the “Insecticidal degree (%)” value in the experiment with brown planthoppers came out at 90%.

Regarding `CSc1nc(N)n(-c2cc(SCC(F)(F)F)c(C)cc2F)n1` [Compound 15], the “Nemastatic degree (%)” value in experiment [1] is reported as 100%. Regarding `Cc1cc(F)c(-n2nc(SCC#N)nc2N)cc1SCC(F)(F)F` [Compound 140], in experiment [1], the “Nemastatic degree (%)” value is given as 99%. Consider `Cc1cc(F)c(-n2nc(SC(F)F)nc2N)cc1SCC(F)(F)F` [Compound 27], for which, in the experiment on brown planthoppers, the “Insecticidal degree (%)” value stood at 100%. Besides, the “Nemastatic degree (%)” value in experiment [1] is 100%. On to `Cc1cc(F)c(-n2nc(SCC#N)nc2N)cc1[S+]([O-])CC(F)(F)F` (stereo not shown) [Compound 141], for which the “Insecticidal degree (%)” value in the experiment on brown planthoppers was 100%. Besides, in experiment [1], the “Nemastatic degree (%)” value is 97%. As for `CC(=O)Nc1nc(C(C)(C)C)nn1-c1cc(SCC(F)(F)F)c(C)cc1F` [Compound 112], the “Insecticidal degree (%)” value with brown planthoppers turned out to be 90%. In the case of `Cc1cc(F)c(-n2nc(SCC(F)(F)F)nc2N)cc1SCC(F)(F)F` [Compound 130], the “Nemastatic degree (%)” value in experiment [1] was found to be 100%. Turning to `CC(=O)Nc1nc(C(F)(F)F)nn1-c1cc(SCC(F)(F)F)c(C)cc1F` [Compound 75], the “Insecticidal degree (%)” value with brown planthoppers is 100%. The “Nemastatic degree (%)” value in experiment [1] is given as 94%. For `Cc1cc(F)c(-n2nc(SC(F)(F)C(F)(F)F)nc2N)cc1SCC(F)(F)F` [Compound 176], the “Insecticidal degree (%)” value in the experiment with brown planthoppers is listed as 90%. Moreover, in experiment [1], the “Nemastatic degree (%)” value came to 97%. As for `CC[S+]([O-])c1nc(N)n(-c2cc([S+]([O-])CC(F)(F)F)c(C)cc2F)n1` (stereo not shown) [Compound 24], in the experiment on brown planthoppers, the “Insecticidal degree (%)” value amounted to 90%. In the case of `Cc1cc(F)c(-n2nc(C(C)C)nc2N)cc1SCC(F)(F)F` [Compound 110], the “Nemastatic degree (%)” value in experiment [1] is listed as 97%. Regarding `Cc1cc(F)c(-n2nc(C(F)(F)F)nc2NC(=O)C(F)F)cc1[S+]([O-])CC(F)(F)F` (racemic) [Compound 200], the “Insecticidal degree (%)” value with brown planthoppers came to 100%.

For the compound `CCN(CC)c1nc(C(F)(F)F)nn1-c1cc(SCC(F)(F)F)c(C)cc1F` [Compound 128], the “Insecticidal degree (%)” value with brown planthoppers came out at 100%.

As for `Cc1cc(F)c(-n2nc(C(F)(F)F)nc2NN)cc1[S+]([O-])CC(F)(F)F` (stereo not shown) [Compound 163], the “Insecticidal degree (%)” value with brown planthoppers is 100%. As to `CCc1nc(N)n(-c2cc(SCC(F)(F)F)c(C)cc2F)n1` [Compound 49], the “Insecticidal degree (%)” value in the experiment on brown planthoppers was 100%. As to `CCS(=O)(=O)c1nc(N)n(-c2cc([S+]([O-])CC(F)(F)F)c(C)cc2F)n1` (stereo not shown) [Compound 26], the “Insecticidal degree (%)” value with brown planthoppers is 90%. In the case of `CCSc1nc(N)n(-c2cc(SCC(F)(F)F)c(C)cc2F)n1` [Compound 21], the “Nemastatic degree (%)” value in experiment [1] is 100%.

`CNc1nc(C(F)(F)F)nn1-c1cc(SCC(F)(F)F)c(C)cc1F` [Compound 39]: the “Insecticidal degree (%)” value in the experiment on brown planthoppers was determined as 100%. For the same compound, in experiment [1], the “Nemastatic degree (%)” value was 100%. As for `C#CC[S+]([O-])c1nc(N)n(-c2cc(SCC(F)(F)F)c(C)cc2F)n1` (stereo not shown) [Compound 150], the “Insecticidal degree (%)” value in the experiment with brown planthoppers was 100%. `CCc1nc(N)n(-c2cc(SCC(F)(F)F)c(C)cc2F)n1` [Compound 116]: the “Nemastatic degree (%)” value in experiment [1] is listed as 97%.

`Cc1cc(F)c(-n2nc(C(F)(F)C(F)(F)C(F)(F)F)nc2N)cc1[S+]([O-])CC(F)(F)F` (racemic) [Compound 175]: the “Nemastatic degree (%)” value in experiment [1] is given as 97%. For `C#CCNc1nc(C(F)(F)F)nn1-c1cc(SCC(F)(F)F)c(C)cc1F` [Compound 65], the “Insecticidal degree (%)” value in the experiment on brown planthoppers was 100%. Further, the “Nemastatic degree (%)” value in experiment [1] came to 100%. Regarding `CNC(=O)Nc1nc(C(F)(F)F)nn1-c1cc(SCC(F)(F)F)c(C)cc1F` [Compound 168], the “Insecticidal degree (%)” value in the experiment on brown planthoppers stood at 100%. Also, the “Nemastatic degree (%)” value in experiment [1] turned out to be 100%. As for `Cc1cc(F)c(-n2nc(C(F)(F)F)nc2N)cc1SCC1CC1` [Compound 3], in experiment [1], the “Nemastatic degree (%)” value stood at 100%. As for `Cc1cc(F)c(-n2nc(C(F)(F)F)nc2NC(=O)NC(C)C)cc1SCC(F)(F)F` [Compound 201], the “Insecticidal degree (%)” value in the experiment on brown planthoppers was determined as 100%.

`Cc1cc(F)c(-n2nc(C(F)(F)F)nc2N(C)N)cc1SCC(F)(F)F` [Compound 170]: in the experiment on brown planthoppers, the “Insecticidal degree (%)” value is on record as 100%. Moreover, in experiment [1], the “Nemastatic degree (%)” value is reported as 100%. Consider `Cc1cc(F)c(-n2nc(C(F)(F)C(F)(F)C(F)(F)F)nc2N)cc1SCC(F)(F)F` [Compound 174], for which the “Insecticidal degree (%)” value in the experiment on brown planthoppers is listed as 90%. The “Nemastatic degree (%)” value in experiment [1] is 100%.

As for `Cc1cc(F)c(-n2nc(C(F)(F)F)nc2NC(=O)N(C)C)cc1SCC(F)(F)F` [Compound 83], the “Insecticidal degree (%)” value with brown planthoppers turned out to be 10%. As to `Cc1ccc(-n2nc(C(F)(F)F)nc2N)cc1SCC(F)(F)F` [Compound 124], the “Insecticidal degree (%)” value in the experiment on brown planthoppers was 100%. Further, the “Nemastatic degree (%)” value in experiment [1] is reported as 100%.
